Measurements reported in US7794987B2, “Method for treating central neuropathic pain” (UCB Pharma GmbH, priority 2003, dated 2010).

Assays:
[1] = tested on: spinally injured rats; experiment: Repeated administration of SPM 927 in spinally injured rats (von Frey hairs, brushing, cold); type: in vivo, Sprague-Dawley rats; settings: 20 mg/kg twice a day
Experimental: (§1) Male and female Sprague-Dawley rats (Möllegard, Denmark) weighing 200-250 g at the start of the experiments were used.
(§2) Ischemic spinal cord injury was produced in female rats according to methods described previously (Xu et al., 1992). In brief, the rats were anesthetized with chloral hydrate (300 mg/kg, i.p.) and a midline incision was made on the skin overlying vertebral segments T12-L1. The animals were positioned beneath an argon laser beam and irradiated for 10 min with the beam directed towards vertebral segment T12 or T13 (spinal segments L3-5). Immediately prior to and 5 min after the start of the irradiation, erythrosin B (Red No 3, Aldrich-Chemie, Steinheim, Germany) dissolved in 0.9% saline was injected intravenously through the tail vein at a dose of 32.5 mg/kg. A tunable argon ion laser (Innova model 70, Coherent Laser Product Division, Palo Alto, Calif.) operating at 514 nm was used. The average beam output power was 160 mW. The beam covered the entire width of the vertebra and the length of the beam was 1-2 mm. After irradiation, the wound was closed in layers and the rats were allowed to recover. The bladder was emptied manually for 1 week.
(§3) The vocalization threshold to graded mechanical touch/pressure stimuli were tested with von Frey hairs. During testing the rats were gently restrained in a standing position and the von Frey hair was pushed onto the skin until the filament became bent. The frequency of stimulation was about 1/s and at each intensity the stimulus was applied 5-10 times. The intensity of stimulation which induced consistent vocalization (>75% response rate) was considered as pain threshold.
(§4) The response of rats to brushing stimulation was tested with the blunt point of a pencil gently stroking the skin on the trunk in a rostro-caudal direction. The frequency of the stimulation was about 1/s and responses were graded with a score of 0=no observable response; 1=transient vocalization and moderate effort to avoid probe; 2=consistent vocalization and aversive reactions and 3=sustained and prolonged vocalization and aggressive behaviours.
(§5) Response to cold was tested with ethyl chloride spray applied to the shaved allodynic skin area. The response was graded with a score of 0=no observable response; 1=localized response (skin twitch and contraction), no vocalization; 2=transient vocalization, moderate struggle and 3=sustained vocalization and aggression.
(§6) SPM 927 was dissolved in physiological saline and injected intraperitoneally. The data for von Frey hairs, brushing and cold are expressed as median±median absolute deviation (M.A.D.) and analysed with Wilcoxon signed-ranks test or paired t-test.
The animals were injected with 20 mg/kg SPM 927 twice a day. The pre-drug response and the response 1 h after injection were assessed in the morning session. […] The normalization of basal sensitivity lasted at least 8 days without signs of tolerance.

[2] = tested on: spinally injured rats; experiment: Single dose of SPM 927 on allodynia-like behaviours in spinally injured rats (von Frey hairs, brushing, cold); type: in vivo, Sprague-Dawley rats; settings: intraperitoneally
Experimental: as §1, §2, §3, §4, §5, §6

SMILES: COC[C@@H](NC(C)=O)C(=O)NCc1ccccc1 [SPM 927, (R)-2-acetamide-N-benzyl-3-methoxypropionamide]
- vocalization threshold to von Frey hair stimulation 1 h after injection ([1]; days 1-3): increase in vocalization threshold
- allodynia to stimulation with von Frey hairs and cold after discontinuation ([1]; discontinued after day 7): reappeared on day 9
- effect on brush stimulation after discontinuation ([1]; discontinued after day 7): maintained up to day 11
- pre-drug response to von Frey hair stimulation ([1]; FIG. 2A): normalized on day 4
- baseline responses to brushing and cold ([1]; FIG. 2B, 2C): normalized from day 2 to day 6 respectively
- duration of normalization of basal sensitivity ([1]; without signs of tolerance): at least 8 days
- effect on mechanical and cold allodynia ([2]; 10 mg/kg): no effect
- effect on mechanical and cold allodynia ([2]; 15 mg/kg): partially alleviated mechanical and cold allodynia in the majority, but not all, rats
- effect on brushing and cold ([2]; 15 mg/kg, FIG. 1B, C): significant effect
- increase in threshold to stimulation with von Frey hairs ([2]; 15 mg/kg, FIG. 1a): significant, but did not return to normal level
- duration of complete reversal of mechanical and cold allodynia ([2]; 20 mg/kg): about 2 h
- effect on mechanical and cold allodynia ([2]; 20 mg/kg): completely reversed mechanical and cold allodynia in all rats
